How the values were obtained:
[1] = biological target: T1, Nitric oxide synthase, inducible (Mus musculus, UniProt P29477); assay: The compound was tested for competitive antagonist of Nitric oxide synthase; assay type: functional
T1 sequence (P29477 whole entry): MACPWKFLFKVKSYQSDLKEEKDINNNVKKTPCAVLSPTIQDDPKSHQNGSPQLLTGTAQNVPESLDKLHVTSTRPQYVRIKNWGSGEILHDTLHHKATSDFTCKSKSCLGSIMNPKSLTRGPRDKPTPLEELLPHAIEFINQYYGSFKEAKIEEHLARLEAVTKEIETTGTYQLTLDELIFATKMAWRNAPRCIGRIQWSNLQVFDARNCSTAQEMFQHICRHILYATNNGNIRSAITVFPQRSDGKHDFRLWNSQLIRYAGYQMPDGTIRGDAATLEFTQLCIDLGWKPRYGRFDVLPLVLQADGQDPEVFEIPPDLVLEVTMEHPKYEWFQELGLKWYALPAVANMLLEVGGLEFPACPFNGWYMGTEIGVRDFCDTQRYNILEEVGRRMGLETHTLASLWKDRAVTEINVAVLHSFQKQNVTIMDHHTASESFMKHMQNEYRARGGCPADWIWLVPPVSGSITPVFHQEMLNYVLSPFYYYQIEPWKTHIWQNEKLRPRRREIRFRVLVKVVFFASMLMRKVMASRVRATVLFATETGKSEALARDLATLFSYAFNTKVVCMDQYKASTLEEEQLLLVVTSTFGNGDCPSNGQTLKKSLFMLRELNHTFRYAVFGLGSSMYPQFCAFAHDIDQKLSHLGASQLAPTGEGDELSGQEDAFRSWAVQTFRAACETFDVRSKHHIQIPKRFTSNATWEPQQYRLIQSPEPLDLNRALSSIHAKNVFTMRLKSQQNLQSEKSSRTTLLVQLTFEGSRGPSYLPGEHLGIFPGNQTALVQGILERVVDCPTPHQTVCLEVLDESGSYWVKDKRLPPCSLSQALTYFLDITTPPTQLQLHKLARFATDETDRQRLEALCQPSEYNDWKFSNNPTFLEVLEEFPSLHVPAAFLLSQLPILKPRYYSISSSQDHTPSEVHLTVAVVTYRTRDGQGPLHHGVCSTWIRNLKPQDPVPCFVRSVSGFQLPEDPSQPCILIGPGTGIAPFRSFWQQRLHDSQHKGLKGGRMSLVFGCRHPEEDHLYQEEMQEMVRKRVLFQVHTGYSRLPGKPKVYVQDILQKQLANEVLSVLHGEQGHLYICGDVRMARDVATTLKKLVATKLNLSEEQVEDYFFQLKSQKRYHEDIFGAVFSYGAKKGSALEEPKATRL

[2] = biological target: T2, Nitric oxide synthase, inducible (Mus musculus) (UniProt P29477)
T2 sequence (whole entry): T1 sequence (P29477 whole entry)
Description: Pseudo-first order inactivation rate constant against nitric oxide synthase was determined

[3] = biological target: T1, Nitric oxide synthase, inducible; assay: Compound was tested for competitive antagonist of Nitric oxide synthase; assay type: functional

Row | Ki [1] [µM] | kinact [2] [min⁻¹] | Ki [3] [µM] | Compound
1 | 37.7 |  |  | CC(=NO)NCCC[C@H](N)C(=O)O
2 | 41.1 |  |  | CC(=NO)NCCCC[C@H](N)C(=O)O
3 | 2.16 | 0.35 |  | CC(=N)NCCCC[C@H](N)C(=O)O [L-NIL]
4 |  | 0.16 | 1.42 | CC(=N)NCCC[C@H](N)C(=O)O [L-NIO]

— ChEMBL document CHEMBL1132876, “Examination of N-hydroxylation as a prerequisite mechanism of nitric oxide synthase inactivation” (Bioorg Med Chem Lett, 2000)
